In patent US20230339886A1 (University of Florida Research Foundation, Incorporated, priority 2020, published 2023):
pEC50: −log10 of the molar value.

Target: T1, REV-ERBα LBD (human; residues 281-614 Δ324-422) (Homo sapiens, UniProt P20393, DEL324-422)
T1 construct: 6×Histag-REV-ERBα LBD (human; residues 281-614 Δ324-422); made in house; host or cells: Escherichia coli
Test: TR-FRET corepressor interaction assay (REV-ERBα LBD, FITC-SMRT peptide)
Assay type: biochemical
Conditions: Table 2, read-out: REVERBα agonism (EC50 class, FRET assay)
Protocol: TR-FRET corepressor interaction assay. The time-resolved fluorescence resonance energy transfer (TR-FRET) assay was performed in black low-volume 384-well plates (Greiner). […] Ligand stocks were prepared via serial dilution in DMSO, added to wells in triplicate, and plates were incubated at 4° C. for 2 h and read using a BioTek Synergy Neo multimode plate reader. The Tb donor was excited at 340 nm; its fluorescence emission was monitored at 495 nm, and the acceptor FITC emission was measured at 520 nm; and the TR-FRET ratio was calculated as the signal at 520 nm divided by the signal at 495 nm. Data were plotted using GraphPad Prism as TR-FRET ratio vs. ligand concentration and fit to sigmoidal dose response curve equation.

T1 sequence (P20393 with tags, fused parts or gaps DEL324-422): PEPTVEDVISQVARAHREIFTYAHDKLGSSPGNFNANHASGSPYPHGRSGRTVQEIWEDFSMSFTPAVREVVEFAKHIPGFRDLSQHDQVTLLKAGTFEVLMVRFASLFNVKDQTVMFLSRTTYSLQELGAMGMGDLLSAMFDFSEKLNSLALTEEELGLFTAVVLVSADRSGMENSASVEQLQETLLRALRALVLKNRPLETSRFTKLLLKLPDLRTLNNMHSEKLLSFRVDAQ
T1 sequence (Q9Y618 2335-2356 partner limits assumed): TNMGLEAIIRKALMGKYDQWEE

Row | Compound | pEC50
1 | Cc1ccc(-c2ccc3c(CCNS(=O)(=O)N(C)C)cn(CC(C)C)c3c2)cc1 [Example 48, N-{2-[6-(4-methylphenyl)-1-(2-methylpropyl)-1H-indol-3-yl]ethyl}-N,N-dimethylsulfuric diamide] | 5.52 to 6.30
2 | CC(C)Cn1cc(CCNS(=O)(=O)N(C)C)c2ccc(-c3cc(F)cc(F)c3)cc21 [Example 54, N-{2-[6-(3,5-difluorophenyl)-1-(2-methylpropyl)-1H-indol-3-yl]ethyl}-N,N-dimethyl-sulfuric diamide] | 5.52 to 6.30
3 | CC(C)Cn1cc(CCNS(=O)(=O)N(C)C)c2ccc(-c3cccc(-c4ccccc4)c3)cc21 [Example 55, N-{2-[6-([1,1′-biphenyl]-3-yl)-1-(2-methylpropyl)-1H-indol-3-yl]ethyl}-N,N-dimethyl-sulfuric diamide] | 5.52 to 6.30
4 | CC(C)Cn1cc(CCNS(=O)(=O)N(C)C)c2ccc(-c3ccccc3F)cc21 [Example 56, N-{2-[6-(2-fluorophenyl)-1-(2-methylpropyl)-1H-indol-3-yl]ethyl}-N,N-dimethylsulfuric diamide] | 5.52 to 6.30
5 | CC(C)Cn1cc(C2CCCN(S(=O)(=O)N(C)C)C2)c2ccc(-c3ccccc3)cc21 (centres unmarked) [Example 61, 3-(1-isobutyl-6-phenyl-1H-indol-3-yl)-N,N-dimethylpiperidine-1-sulfonamide] | 5.52 to 6.30
6 | CC(C)Cn1cc(-c2cnn(S(=O)(=O)C(C)C)c2)c2ccc(-c3ccccc3)cc21 [Example 63, 1-isobutyl-3-(1-(isopropylsulfonyl)-1H-pyrazol-4-yl)-6-phenyl-1H-indole] | < 5.52
7 | CC(C)Cn1cc(CCNS(=O)(=O)N(C)C)c2ccc(-c3ccccc3OCc3ccccc3)cc21 [Example 77, N-{2-[6-(2-benzyloxylphenyl)-1-(2-methylpropyl)-1H-indol-3-yl]ethyl}-N,N-dimethyl-sulfuric diamide] | 5.52 to 6.30
8 | CC(C)Cn1cc(-c2cccc(NS(=O)(=O)C(C)C)c2)c2ccc(-c3ccccc3)cc21 [Example 83, N-(3-(1-isobutyl-6-phenyl-1H-indol-3-yl)phenyl)propane-2-sulfonamide] | < 5.52
9 | C=C(C)c1ccc2c(CCNS(=O)(=O)N(C)C)cn(CC(C)C)c2c1 [Example 88] | > 6.30
10 | CC(C)Cn1cc(CCNS(=O)(=O)N(C)C)c2ccc(C3(O)CCC3)cc21 [Example 107, 1-(3-{2-[(dimethylsulfamoyl)amino]ethyl}-1-(2-methylpropyl)-1H-indol-6-yl)cyclobutan-1-ol] | 5.52 to 6.30
11 | CC(C)Cn1cc(CCNS(=O)(=O)N(C)C)c2ccc(C3CCC3)cc21 [Example 108, ({2-[6-cyclobutyl-1-(2-methylpropyl)-1H-indol-3-yl]ethyl}sulfamoyl)dimethylamine] | > 6.30
12 | CCNc1ccc2c(CCNS(=O)(=O)N(C)C)cn(CC(C)C)c2c1 [Example 112, N′-{2-[6-ethylamino-1-(2-methylpropyl)-1H-indol-3-yl]ethyl}-N,N-dimethylsulfuric diamide] | < 5.52
13 | CC(C)Cn1cc(CCN(C)S(=O)(=O)N(C)C)c2ccc(N(C)C)cc21 [Example 114, N′-{2-[6-N,N-dimethylamino-1-(2-methylpropyl)-1H-indol-3-yl]ethyl}-N′-methyl-N,N-dimethyl sulfuric diamide] | 5.52 to 6.30
14 | CC(C)Cn1cc(CCNS(=O)(=O)N(C)C)c2ccc(OCc3ccccc3)cc21 [Example 115, N′-{2-[6-benzyloxy-1-(2-methylpropyl)-1H-indol-3-yl]ethyl}-N,N-dimethylsulfuric diamide] | 5.52 to 6.30
15 | COc1ccc2c(CCN(C)S(=O)(=O)N(C)C)cn(CC(C)C)c2c1 [Example 117, N-{2-[6-methoxyl-1-(2-methylpropyl)-1H-indol-3-yl]ethyl}-N-methyl-N,N-dimethyl sulfuric diamide] | < 5.52
16 | CC(C)Cn1cc(CCNS(=O)(=O)N(C)C)c2ccc(OC(C)(C)C)cc21 [Example 119, N′-{2-[6-tert-butoxy-1-(2-methylpropyl)-1H-indol-3-yl]ethyl}-N,N-dimethylsulfuric diamide] | 5.52 to 6.30

The next lines start with the values.

Row | pEC50 | Compound
17 | > 6.30 | Cc1ccccc1-c1ccc2c(CCNS(=O)(=O)N(C)C)cn(CC(C)C)c2c1 [Example 46, N-{2-[6-(2-methylphenyl)-1-(2-methylpropyl)-1H-indol-3-yl]ethyl}-N,N-dimethylsulfuric diamide]
18 | > 6.30 | CC(C)Cn1cc(CCNS(=O)(=O)N(C)C)c2ccc(-c3cccc([N+](=O)[O-])c3)cc21 [Example 49, N-{2-[6-(3-nitrophenyl)-1-(2-methylpropyl)-1H-indol-3-yl]ethyl}-N,N-dimethylsulfuric diamide]
19 | > 6.30 | CC(C)Cn1cc(CCNS(=O)(=O)N(C)C)c2ccc(-c3cccc(C#N)c3)cc21 [Example 59, N-{2-[6-(3-cyanophenyl)-1-(2-methylpropyl)-1H-indol-3-yl]ethyl}-N,N-dimethylsulfuric diamide]
20 | 5.52 to 6.30 | CC(C)Cn1cc(CCNS(=O)(=O)N(C)C)c2ccc(-c3cccc(S(C)(=O)=O)c3)cc21 [Example 60, N-{2-[6-(3-methylsulfonylphenyl)-1-(2-methylpropyl)-1H-indol-3-yl]ethyl}-N,N-dimethylsulfuric diamide]
21 | 5.52 to 6.30 | CNS(=O)(=O)c1ccccc1-c1ccc2c(CCNS(=O)(=O)N(C)C)cn(CC(C)C)c2c1 [Example 72, N′-{2-[6-(2-N′-methylsulfonamidophenyl)-1-(2-methylpropyl)-1H-indol-3-yl]ethyl}-N,N-dimethylsulfuric diamide]
22 | < 5.52 | COC(=O)c1ccccc1-c1ccc2c(CCNS(=O)(=O)N(C)C)cn(CC(C)C)c2c1 [Example 73, N′-{2-[6-(2-methyl carbonatephenyl)-1-(2-methylpropyl)-1H-indol-3-yl]ethyl}-N,N-dimethyl sulfuric diamide]
23 | < 5.52 | CC(C)Cn1cc(CCNS(=O)(=O)N(C)C)c2ccc(-c3ccccc3-c3ccccc3)cc21 [Example 74, N-{2-[6-[(1,1-diphenyl)-2yl]-1-(2-methylpropyl)-1H-indol-3-yl]ethyl}-N,N-dimethylsulfuric diamide]
24 | 5.52 to 6.30 | CC(C)Cn1cc(CCNS(=O)(=O)N(C)C)c2ccc(-c3ccccc3CO)cc21 [Example 76, N-{2-[6-(2-hydroxylmethylphenyl)-1-(2-methylpropyl)-1H-indol-3-yl]ethyl}-N,N-dimethyl-sulfuric diamide]
25 | 5.52 to 6.30 | CC(C)Cn1cc(CCNS(=O)(=O)N(C)C)c2ccc(-c3ccccc3C(=O)OC(C)(C)C)cc21 [Example 79]
26 | > 6.30 | Cc1cccc(C)c1-c1ccc2c(CCNS(=O)(=O)N(C)C)cn(CC(C)C)c2c1 [Example 81, N-{2-[6-(2,6-dimethylphenyl)-1-(2-methylpropyl)-1H-indol-3-yl]ethyl}-N,N-dimethyl-sulfuric diamide]
27 | 5.52 to 6.30 | CC(C)Cn1cc(-c2cccc(CNS(=O)(=O)C(C)C)c2)c2ccc(-c3ccccc3)cc21 [Example 86, N-(3-(1-isobutyl-6-phenyl-1H-indol-3-yl)benzyl)propane-2-sulfonamide]
28 | 5.52 to 6.30 | CC(C)Cn1cc(-c2ccc(CNS(=O)(=O)C(C)C)cc2)c2ccc(-c3ccccc3)cc21 [Example 87, N-(4-(1-isobutyl-6-phenyl-1H-indol-3-yl)benzyl)propane-2-sulfonamide]
29 | 5.52 to 6.30 | CC(C)Cn1cc(CCNS(=O)(=O)N(C)C)c2ccc(-n3cccn3)cc21 [Example 92, N-{2-[6-(1H-pyrazol-1-yl)-1-(2-methylpropyl)-1H-indol-3-yl]ethyl}-N,N-dimethylsulfuric diamide]
30 | 5.52 to 6.30 | CC(C)Cn1cc(CCNS(=O)(=O)N(C)C)c2ccc(-n3ccnc3)cc21 [Example 93, N-{2-[6-(1H-imidazol-1-yl)-1-(2-methylpropyl)-1H-indol-3-yl]ethyl}-N,N-dimethylsulfuric diamide]
31 | < 5.52 | CC(C)Cn1cc(CCNS(=O)(=O)N(C)C)c2ccc(C(C)(C)C)cc21 [Example 106, ({2-[6-tert-butyl-1-(2-methylpropyl)-1H-indol-3-yl]ethyl}sulfamoyl)dimethylamine]
32 | > 6.30 | CC(C)Cn1cc(CCNS(=O)(=O)N(C)C)c2ccc(Cl)cc21 [Example 109, ({2-[6-chloro-1-(2-methylpropyl)-1H-indol-3-yl]ethyl}sulfamoyl)dimethylamine]
33 | 5.52 to 6.30 | CC(C)Cn1cc(CCNS(=O)(=O)N(C)C)c2ccc(F)cc21 [Example 110, ({2-[6-fluoro-1-(2-methylpropyl)-1H-indol-3-yl]ethyl}sulfamoyl)dimethylamine]
34 | 5.52 to 6.30 | CC(C)Cn1cc(CCNS(=O)(=O)N(C)C)c2ccc(NC(C)C)cc21 [Example 111, N-{2-[6-isopropylamino-1-(2-methylpropyl)-1H-indol-3-yl]ethyl}-N,N-dimethylsulfuric diamide]
35 | 5.52 to 6.30 | CC(C)Cn1cc(CCNS(=O)(=O)N(C)C)c2ccc(N(C)C)cc21 [Example 113, N′-{2-[6-N,N-dimethylamino-1-(2-methylpropyl)-1H-indol-3-yl]ethyl}-N,N-dimethylsulfuric diamide]
36 | < 5.52 | CC(C)Cn1cc(CCNS(=O)(=O)N(C)C)c2ccc(O)cc21 [Example 116, N-{2-[6-hydroxy-1-(2-methylpropyl)-1H-indol-3-yl]ethyl}-N,N-dimethylsulfuric diamide]
37 | 5.52 to 6.30 | CC(C)Cn1cc(CCNS(=O)(=O)N(C)C)c2ccc(OC(C)C)cc21 [Example 118, N′-{2-[6-isopropoxy-1-(2-methylpropyl)-1H-indol-3-yl]ethyl}-N,N-dimethylsulfuric diamide]
38 | 5.52 to 6.30 | CC(C)Cn1cc(CCN(C)S(=O)(=O)N(C)C)c2ccc(C(F)(F)F)cc21 [Example 121, dimethyl[methyl({2-[1-(2-methylpropyl)-6-(trifluoromethyl)-1H-indol-3-yl]ethyl})sulfamoyl]amine]
